Reference: paper PMC10566733 (PLOS ONE, 2023)
Several values for one entry are separate records, joined by “and”; a condition that tells them apart may be missing. Equal values may be shown once. Read-outs that look alike come from different tables or passages of the source. Residues, ends and D or L forms follow the SMILES beside them. *: point of attachment. FITC = O=C1OC2(c3ccc(O)cc3Oc3cc(O)ccc32)c2ccc(NC(=S)*)cc21

Columns and labels:
[1] = test system: bEnd.3 mouse brain endothelial cells
Description: The bEnd.3 (mouse brain endothelial cell) cell line, purchased from Bioresource Collection and Research Center (BCRC, Taiwan), was used in this study. Prior to experiments, the cells were cultured in Dulbecco’s modified Eagle’s medium (DMEM; HyClone, cat. #SH30003.02) with 10% fetal bovine serum (Gibco, cat. #10437028) and 1% penicillin-streptomycin (Gibco, cat. #15140112), and were passaged every 2–3 days with 0.25% trypsin-EDTA (Gibco, cat. #25200056).
Cellular metabolic activity was measured by MTT (thiazolyl blue tetrazolium bromide) assay 24 h after treatment by normothermia (37°C), hypothermia (4°C), sodium azide (NaN3)/2-deoxy-D-glucose (2-DG), cytochalasin D, 5-(N-ethyl-N-isopropyl)-amiloride (EIPA), or methyl-beta-cyclodextrin (MβCD). In brief, MTT assay was performed with 2000 cells in culture by first replacing the cell culture medium with medium containing 0.5 mg/ml MTT (Alfa Aesar, cat. #L11939). After a 4-h incubation period to allow for MTT metabolism, the MTT-containing medium was replaced with 100 μl of dimethyl sulfoxide (DMSO; JT Baker), and the culture plate was placed on a shaker for 10 min to allow for dissolution of the violet crystal metabolites. Thereafter, the optical density of the metabolite was measured at 570 nm by an ELISA reader. The optical density of the metabolite in the hypothermia and drug treatment groups was expressed as percentage relative to the optical density of the metabolite in the normothermia and control groups, respectively.

[2] = test system: monolayer of bEnd.3 mouse brain endothelial cells; experiment: Permeability across a monolayer of brain endothelial cells (in vitro BBB model); assay type: in vitro ADME; set-up: Diffusion of FITC-TAT across bEnd.3 monolayer / Diffusion of FITC-linked peptide across bEnd.3 monolayer / Diffusion of FITC-TAT across bEnd.3 monolayer, FITC-TAT + TAT / Diffusion of FITC-TAT across bEnd.3 monolayer, FITC-TAT + TATK/R>A: unit not given here; details: for Rate of diffusion across the monolayer compared with FITC-TAT: bEnd.3 monolayer; for Diffusion of FITC-linked peptide across bEnd.3 monolayer: fluorescence spectrophotometry
[3] = peptide 1 μM (Fig 3A), diffusion time 0.1 h, individual cultures n = 4
[4] = peptide 1 μM (Fig 3A), diffusion time 4 h, individual cultures n = 4
[5] = peptide 1 μM (Fig 3A), diffusion time 12 h, individual cultures n = 4
[6] = peptide 1 μM (Fig 3A), diffusion time 24 h, individual cultures n = 4
[7] = peptide 3 μM (Fig 3B), diffusion time 0.1 h, individual cultures n = 4
[8] = peptide 3 μM (Fig 3B), diffusion time 4 h, individual cultures n = 4
[9] = peptide 3 μM (Fig 3B), diffusion time 12 h, individual cultures n = 4
[10] = peptide 3 μM (Fig 3B), diffusion time 24 h, individual cultures n = 4
[11] = peptide 10 μM (Fig 3C), diffusion time 0.1 h, individual cultures n = 4
[12] = peptide 10 μM (Fig 3C), diffusion time 4 h, individual cultures n = 4
[13] = peptide 10 μM (Fig 3C), diffusion time 12 h, individual cultures n = 4
[14] = peptide 10 μM (Fig 3C), diffusion time 24 h, individual cultures n = 4

Molecule | Effect on cellular metabolic activity, MTT [1] | Rate of diffusion across the monolayer compared with FITC-TAT ([2]; 1 μM concentration, Fig 3A) | Rate of diffusion across the monolayer compared with FITC-TAT ([2]; 3 μM concentration, Fig 3B) | Rate of diffusion across the monolayer compared with FITC-TAT ([2]; 10 μM concentration, Fig 3C) | Diffusion of FITC-linked peptide across bEnd.3 monolayer [2, 3] | Diffusion of FITC-linked peptide across bEnd.3 monolayer [2, 4] | Diffusion of FITC-linked peptide across bEnd.3 monolayer [2, 5] | Diffusion of FITC-linked peptide across bEnd.3 monolayer [2, 6] | Diffusion of FITC-linked peptide across bEnd.3 monolayer [2, 7] | Diffusion of FITC-linked peptide across bEnd.3 monolayer [2, 8] | Diffusion of FITC-linked peptide across bEnd.3 monolayer [2, 9] | Diffusion of FITC-linked peptide across bEnd.3 monolayer [2, 10] | Diffusion of FITC-linked peptide across bEnd.3 monolayer [2, 11] | Diffusion of FITC-linked peptide across bEnd.3 monolayer [2, 12] | Diffusion of FITC-linked peptide across bEnd.3 monolayer [2, 13] | Diffusion of FITC-linked peptide across bEnd.3 monolayer [2, 14] | also measured
CCN(c1nc(N)c(C(=O)N=C(N)N)nc1Cl)C(C)C [EIPA, 5-(N-ethyl-N-isopropyl)-amiloride] | markedly decreased cellular metabolic activity | – | – | – | – | – | – | – | – | – | – | – | – | – | – | – | –
C[C@H](NC(=O)[C@H](C)NC(=O)[C@H](C)NC(=O)[C@H](CCC(N)=O)NC(=O)[C@H](C)NC(=O)[C@H](C)NC(=O)[C@H](C)NC(=O)[C@H](C)NC(=O)[C@H](C)NC(=O)CNC(=O)[C@H](Cc1ccc(O)cc1)NC(=S)Nc1ccc2c(c1)C(=O)OC21c2ccc(O)cc2Oc2cc(O)ccc21)C(=O)O [FITC-TATK/R>A] ({FITC}-YGAAAAAQAAA-OH) | – | much lower rate than FITC-TAT | much lower rate than FITC-TAT | much lower rate than FITC-TAT | 16.9505 and 16.508 and 16.5507 and 15.9581 | 28.9506 and 32.0869 and 31.9736 and 31.2514 | 42.2787 and 47.1236 and 45.2026 and 46.9823 | 65.8175 and 68.5893 and 66.6226 and 69.1937 | 6.156 and 4.865 and 2.668 and 3.238 | 19.8822 and 11.958 and 7.983 and 9.049 | 39.1651 and 26.1724 and 19.7108 and 16.4957 | 49.6596 and 34.462 and 23.6779 and 22.9503 | 1.811 and 1.623 and 2.572 and 1.851 | 18.7947 and 19.4252 and 20.5729 and 16.0903 | 38.7338 and 38.9661 and 39.2385 and 32.797 | 65.0223 and 61.702 and 66.1075 and 57.2466 | Diffusion of FITC-linked peptide across bEnd.3 monolayer ([2]; peptide 10 μM alone (Fig 3D), diffusion time 0.1 h, individual cultures n = 3): 2.221 and 2.035 and 1.973; Diffusion of FITC-linked peptide across bEnd.3 monolayer ([2]; peptide 10 μM alone (Fig 3D), diffusion time 12 h, individual cultures n = 3): 29.1435 and 26.4948 and 29.3071; Diffusion of FITC-linked peptide across bEnd.3 monolayer ([2]; peptide 10 μM alone (Fig 3D), diffusion time 24 h, individual cultures n = 3): 54.4105 and 51.9054 and 56.2316
N=C(N)NCCC[C@H](NC(=O)[C@H](CCCNC(=N)N)NC(=O)[C@H](CCCCN)NC(=O)[C@H](Cc1ccc(O)cc1)NC(=O)[C@H](CCCNC(=N)N)NC(=O)[C@H](CCCNC(=N)N)NC(=O)[C@H](CCCNC(=N)N)NC(=O)[C@H](CCCNC(=N)N)NC(=O)[C@H](CCCCN)NC(=S)Nc1ccc2c(c1)C(=O)OC21c2ccc(O)cc2Oc2cc(O)ccc21)C(=O)N[C@@H](CCC(N)=O)C(=O)NCC(=O)O [FITC-TATscrambled] ({FITC}-KRRRRYKRRQG-OH) | – | marginally higher rate than FITC-TAT | rate equal to that of FITC-TAT | marginally lower than FITC-TAT | 16.6121 and 16.5353 and 16.6054 and 15.9771 | 37.5047 and 37.4667 and 38.2192 and 36.5367 | 71.5027 and 70.7894 and 73.1753 and 67.019 | 112.675 and 114.406 and 111.607 and 110.916 | 5.913 and 5.203 | 27.0594 (2×) and 32.066 and 20.6139 | 76.2224 (2×) and 56.9939 and 73.6994 | 111.452 (2×) and 91.4132 and 89.6289 | 1.995 and 1.727 and 1.576 and 1.501 | 22.9531 and 16.5248 and 15.9626 and 15.9604 | 52.8508 and 41.023 and 42.3549 and 44.9043 | 105.008 and 91.7182 and 94.732 and 94.0226 | –
C=C1[C@@H](C)[C@H]2[C@H](Cc3ccccc3)NC(=O)[C@]23[C@H](OC(C)=O)/C=C/[C@@](C)(O)C(=O)[C@@H](C)C/C=C/[C@H]3[C@@H]1O [cytochalasin D] | – | – | – | – | – | – | – | – | – | – | – | – | – | – | – | – | Effect on cellular metabolic activity, MTT ([1]; bEnd.3, pre-treatment for 30 min followed by washout, Fig 4A): had no effect on cellular metabolic activity; Effect on cellular metabolic activity, MTT ([1]; bEnd.3, sustained treatment for 24 h, Fig 4A): increased cellular metabolic activity in a concentration-dependent manner
methyl-beta-cyclodextrin [MβCD] | markedly decreased cellular metabolic activity | – | – | – | – | – | – | – | – | – | – | – | – | – | – | – | –
